Target: T1, MKP3^CD (Homo sapiens, UniProt Q16828)
T1 construct: ^15N-labeled MKP3^1–154, MKP3^14–152, MKP3^204–350; made in house; host or cells: Escherichia coli BL21(DE3)
T1 sequence (Q16828 204-350): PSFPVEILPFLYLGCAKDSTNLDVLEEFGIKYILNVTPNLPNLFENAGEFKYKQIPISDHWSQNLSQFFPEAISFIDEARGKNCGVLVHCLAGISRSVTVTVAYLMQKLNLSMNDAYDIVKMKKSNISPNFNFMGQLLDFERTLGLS
Experiment: Phosphatase activity toward pERK2 (coupled MESG assay)
Type: biochemical
Conditions: initial velocities in absence and presence of BCI, n = 3
Description: The phosphatase activity of MKP3 (0.5 μM) toward pERK2 (0.5 μM) was measured using a coupled assay, in which phosphate released from the substrate was transferred to 7-methyl-6-thioguanosine (MESG) by purine nucleoside phosphorylase. Assays were performed in a reaction mixture containing 50 mM Mops (pH 7.0), 100 mM NaCl, 0.1 mM EDTA, 100 μM MESG, 4 μM purine nucleoside phosphorylase, and varying concentrations of BCI, as indicated in Figure 5. Dephosphorylation was monitored by measuring absorbance changes at 360 nm, reflecting the conversion of MESG to 7-methyl-6-thioguanine in the presence of inorganic phosphate. Phosphate quantification was performed using an extinction coefficient of 11,200 M^-1 cm^-1 at 360 nm.
Stock solutions of BCI (dissolved in DMSO) at different concentrations were prepared to maintain a constant DMSO concentration across all BCI concentrations in the phosphatase inhibition assays, thereby eliminating potential effects of varying DMSO levels on detection. Initial reaction rates were determined from the linear slope of progress curves, and the data were analyzed using nonlinear regression. Kinetic parameters (kcat and Km) were obtained by fitting the data to the Michaelis–Menten equation: v0 = kcat[E][S]/(Km + [S]). […]

O=C1/C(=C/c2ccccc2)C(NC2CCCCC2)c2ccccc21 (stereo not shown) [BCI, (E)-2-benzylidene-3-(cyclohexylamino)-2,3-dihydro-1H-inden-1-one]
effect on MKP3^CD activity toward pERK2: no effect

Source: publication PMC12444472, “BCI inhibits MKP3 by targeting the kinase-binding domain and disrupting ERK2 interaction” (The Journal of Biological Chemistry, 2025)
